Laboratory results reported in publication PMC11345841, “Exploring 2-Sulfonylpyrimidine Warheads as Acrylamide Surrogates for Targeted Covalent Inhibition: A BTK Story” (Journal of Medicinal Chemistry, 2024).
Read-outs that look alike come from different tables or passages of the source.

What was measured:
TMD8 cells = test: RNA-seq gene expression; conditions: for Expr Log Ratio: 8d versus Ibrutinib
EPHB2 = target: T1, EPHB2 (Homo sapiens, UniProt P29323); test: KINOMEscan ScanTK; type: binding
T1 construct: purchased Eurofins DiscoverX KINOMEscan (scanTK)
T1 sequence (P29323 19-1055): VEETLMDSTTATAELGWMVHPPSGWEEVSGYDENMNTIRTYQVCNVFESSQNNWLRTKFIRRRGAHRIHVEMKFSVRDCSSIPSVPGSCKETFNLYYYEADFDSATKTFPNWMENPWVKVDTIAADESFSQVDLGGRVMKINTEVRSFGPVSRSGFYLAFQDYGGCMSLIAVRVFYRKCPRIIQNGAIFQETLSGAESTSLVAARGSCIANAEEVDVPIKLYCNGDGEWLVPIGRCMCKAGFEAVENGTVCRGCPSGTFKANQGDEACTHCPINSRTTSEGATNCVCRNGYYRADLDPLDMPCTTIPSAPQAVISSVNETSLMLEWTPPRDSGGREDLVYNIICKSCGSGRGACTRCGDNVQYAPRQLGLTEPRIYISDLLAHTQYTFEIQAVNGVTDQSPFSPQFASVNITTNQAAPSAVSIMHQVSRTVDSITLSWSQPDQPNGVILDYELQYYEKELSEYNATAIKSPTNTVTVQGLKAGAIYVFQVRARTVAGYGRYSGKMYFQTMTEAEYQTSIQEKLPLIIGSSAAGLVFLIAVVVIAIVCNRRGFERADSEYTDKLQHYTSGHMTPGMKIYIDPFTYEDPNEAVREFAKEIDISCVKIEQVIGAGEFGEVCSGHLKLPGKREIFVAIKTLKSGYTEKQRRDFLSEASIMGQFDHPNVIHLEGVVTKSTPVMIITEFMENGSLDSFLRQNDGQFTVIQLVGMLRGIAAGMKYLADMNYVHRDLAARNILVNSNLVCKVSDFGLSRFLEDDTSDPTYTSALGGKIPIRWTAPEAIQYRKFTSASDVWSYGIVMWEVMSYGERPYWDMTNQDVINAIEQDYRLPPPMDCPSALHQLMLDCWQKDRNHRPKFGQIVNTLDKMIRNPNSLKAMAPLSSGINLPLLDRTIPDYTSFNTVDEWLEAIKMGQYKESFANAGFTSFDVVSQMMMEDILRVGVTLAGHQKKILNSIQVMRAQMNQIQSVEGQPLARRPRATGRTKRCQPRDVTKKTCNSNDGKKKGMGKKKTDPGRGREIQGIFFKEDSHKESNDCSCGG

FYN = target: T2, FYN (Homo sapiens, UniProt P06241); test: KINOMEscan ScanTK; type: binding
T2 construct: purchased Eurofins DiscoverX KINOMEscan (scanTK)

BRK = target: T3, BRK (Homo sapiens, UniProt Q13882); test: KINOMEscan ScanTK; type: binding
T3 construct: purchased Eurofins DiscoverX KINOMEscan (scanTK)

KIT(D816V) = target: T4, KIT(D816V) (Homo sapiens, UniProt P10721, D816V); test: KINOMEscan ScanTK; type: binding
T4 construct: purchased Eurofins DiscoverX KINOMEscan (scanTK)

[1] = target: T5, ABL1(H396P)-nonphosphorylated (Homo sapiens, UniProt P00519, H396P); test: KINOMEscan ScanTK; type: binding
T5 construct: purchased Eurofins DiscoverX KINOMEscan (scanTK)

TIE2 = target: T6, TIE2 (Homo sapiens, UniProt Q02763); test: KINOMEscan ScanTK; type: binding
T6 construct: purchased Eurofins DiscoverX KINOMEscan (scanTK)

ALK = target: T7, ALK (Homo sapiens, UniProt Q9UM73); test: KINOMEscan ScanTK; type: binding
T7 construct: purchased Eurofins DiscoverX KINOMEscan (scanTK)
T7 sequence (Q9UM73 19-1620): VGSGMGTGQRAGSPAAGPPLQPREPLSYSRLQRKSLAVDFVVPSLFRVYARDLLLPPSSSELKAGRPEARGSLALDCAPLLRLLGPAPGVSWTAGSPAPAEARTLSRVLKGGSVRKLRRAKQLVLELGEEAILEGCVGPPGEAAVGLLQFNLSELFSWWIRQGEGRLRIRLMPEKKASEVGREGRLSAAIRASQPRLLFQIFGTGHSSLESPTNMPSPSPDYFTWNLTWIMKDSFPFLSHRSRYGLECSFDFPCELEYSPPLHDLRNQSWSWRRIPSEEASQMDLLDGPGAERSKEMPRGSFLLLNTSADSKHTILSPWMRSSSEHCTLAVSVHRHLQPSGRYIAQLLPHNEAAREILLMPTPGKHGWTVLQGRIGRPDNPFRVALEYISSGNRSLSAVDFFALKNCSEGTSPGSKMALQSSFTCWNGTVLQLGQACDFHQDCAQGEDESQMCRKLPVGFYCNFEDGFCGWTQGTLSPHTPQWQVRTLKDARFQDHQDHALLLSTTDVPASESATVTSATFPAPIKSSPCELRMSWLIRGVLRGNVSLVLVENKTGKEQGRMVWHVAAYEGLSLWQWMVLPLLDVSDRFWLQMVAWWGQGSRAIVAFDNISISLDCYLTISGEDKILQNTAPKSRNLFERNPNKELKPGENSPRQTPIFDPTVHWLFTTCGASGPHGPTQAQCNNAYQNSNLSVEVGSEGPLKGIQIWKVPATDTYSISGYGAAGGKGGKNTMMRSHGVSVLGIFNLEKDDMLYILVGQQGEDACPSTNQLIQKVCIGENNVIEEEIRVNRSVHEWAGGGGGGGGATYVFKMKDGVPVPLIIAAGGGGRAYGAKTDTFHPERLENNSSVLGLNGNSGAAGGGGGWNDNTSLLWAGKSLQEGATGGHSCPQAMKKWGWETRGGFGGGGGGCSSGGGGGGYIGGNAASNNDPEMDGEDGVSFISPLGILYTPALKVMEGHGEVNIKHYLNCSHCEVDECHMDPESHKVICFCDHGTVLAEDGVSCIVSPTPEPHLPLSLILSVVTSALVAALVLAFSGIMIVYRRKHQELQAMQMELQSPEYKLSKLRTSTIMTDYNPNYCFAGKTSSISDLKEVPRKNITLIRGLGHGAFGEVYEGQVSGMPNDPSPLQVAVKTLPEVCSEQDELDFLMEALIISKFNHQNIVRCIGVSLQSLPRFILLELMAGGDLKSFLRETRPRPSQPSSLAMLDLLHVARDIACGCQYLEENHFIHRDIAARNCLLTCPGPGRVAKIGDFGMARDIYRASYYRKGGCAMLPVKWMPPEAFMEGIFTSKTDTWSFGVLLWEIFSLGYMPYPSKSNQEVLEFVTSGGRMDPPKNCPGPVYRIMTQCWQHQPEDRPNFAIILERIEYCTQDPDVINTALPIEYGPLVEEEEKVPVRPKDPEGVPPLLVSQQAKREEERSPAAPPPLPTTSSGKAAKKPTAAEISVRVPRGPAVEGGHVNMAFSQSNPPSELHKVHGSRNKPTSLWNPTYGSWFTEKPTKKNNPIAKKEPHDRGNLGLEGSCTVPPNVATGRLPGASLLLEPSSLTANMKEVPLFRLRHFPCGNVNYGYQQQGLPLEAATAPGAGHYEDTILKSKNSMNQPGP

T3 sequence (Q13882 whole entry): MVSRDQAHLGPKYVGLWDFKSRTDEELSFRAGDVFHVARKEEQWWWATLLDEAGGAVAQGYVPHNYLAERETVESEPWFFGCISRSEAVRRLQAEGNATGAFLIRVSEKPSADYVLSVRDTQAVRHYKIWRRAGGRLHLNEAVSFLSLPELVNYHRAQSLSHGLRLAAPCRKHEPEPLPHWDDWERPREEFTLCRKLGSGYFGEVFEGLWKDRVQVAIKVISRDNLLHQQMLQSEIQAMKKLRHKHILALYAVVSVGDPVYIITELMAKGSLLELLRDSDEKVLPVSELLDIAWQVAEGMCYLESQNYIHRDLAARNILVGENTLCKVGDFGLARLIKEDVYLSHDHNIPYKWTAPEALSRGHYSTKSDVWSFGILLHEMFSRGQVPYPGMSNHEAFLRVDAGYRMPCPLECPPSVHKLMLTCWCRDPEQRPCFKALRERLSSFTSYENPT
T2 sequence (P06241 whole entry): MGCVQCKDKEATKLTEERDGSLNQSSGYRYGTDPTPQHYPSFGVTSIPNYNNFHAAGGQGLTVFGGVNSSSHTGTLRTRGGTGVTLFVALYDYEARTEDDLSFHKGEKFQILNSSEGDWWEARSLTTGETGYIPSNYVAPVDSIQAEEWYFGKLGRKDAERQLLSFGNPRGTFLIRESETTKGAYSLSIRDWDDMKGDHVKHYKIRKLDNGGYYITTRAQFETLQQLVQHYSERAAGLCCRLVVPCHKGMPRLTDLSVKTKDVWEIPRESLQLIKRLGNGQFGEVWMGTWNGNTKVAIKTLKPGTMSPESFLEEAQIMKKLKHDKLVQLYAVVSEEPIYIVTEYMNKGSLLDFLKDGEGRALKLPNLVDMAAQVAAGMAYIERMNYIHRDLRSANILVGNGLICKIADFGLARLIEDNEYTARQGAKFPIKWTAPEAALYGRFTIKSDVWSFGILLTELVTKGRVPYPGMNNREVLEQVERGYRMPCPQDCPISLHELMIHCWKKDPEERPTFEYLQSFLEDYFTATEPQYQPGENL
T6 sequence (Q02763 23-1124): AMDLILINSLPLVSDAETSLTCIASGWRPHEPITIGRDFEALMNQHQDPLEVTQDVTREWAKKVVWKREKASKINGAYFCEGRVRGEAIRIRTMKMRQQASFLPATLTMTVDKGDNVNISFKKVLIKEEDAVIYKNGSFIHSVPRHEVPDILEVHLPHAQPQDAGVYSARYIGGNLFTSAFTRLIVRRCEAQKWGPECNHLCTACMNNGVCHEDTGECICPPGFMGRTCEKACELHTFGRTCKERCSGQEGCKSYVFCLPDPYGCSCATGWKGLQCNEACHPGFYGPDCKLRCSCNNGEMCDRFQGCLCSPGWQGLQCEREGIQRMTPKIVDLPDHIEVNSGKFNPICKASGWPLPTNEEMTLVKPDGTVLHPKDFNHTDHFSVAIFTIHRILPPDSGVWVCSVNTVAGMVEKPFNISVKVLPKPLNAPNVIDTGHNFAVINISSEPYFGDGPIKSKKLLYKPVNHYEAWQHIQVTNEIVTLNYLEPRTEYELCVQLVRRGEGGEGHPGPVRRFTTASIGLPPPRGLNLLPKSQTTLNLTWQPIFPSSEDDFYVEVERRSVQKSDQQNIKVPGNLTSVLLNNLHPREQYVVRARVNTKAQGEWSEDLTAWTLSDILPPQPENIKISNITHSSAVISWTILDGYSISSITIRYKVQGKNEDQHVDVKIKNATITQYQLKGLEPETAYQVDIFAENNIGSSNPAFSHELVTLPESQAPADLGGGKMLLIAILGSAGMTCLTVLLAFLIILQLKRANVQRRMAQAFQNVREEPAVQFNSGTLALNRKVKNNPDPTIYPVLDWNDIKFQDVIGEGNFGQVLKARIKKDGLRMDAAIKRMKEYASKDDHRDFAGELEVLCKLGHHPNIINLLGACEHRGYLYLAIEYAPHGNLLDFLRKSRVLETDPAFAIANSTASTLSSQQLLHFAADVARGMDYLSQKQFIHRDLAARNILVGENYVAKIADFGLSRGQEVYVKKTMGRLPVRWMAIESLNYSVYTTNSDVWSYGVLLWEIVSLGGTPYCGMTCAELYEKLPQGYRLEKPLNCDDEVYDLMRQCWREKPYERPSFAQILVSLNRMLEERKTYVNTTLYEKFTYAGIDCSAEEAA
T4 sequence (P10721 26-976 D816V): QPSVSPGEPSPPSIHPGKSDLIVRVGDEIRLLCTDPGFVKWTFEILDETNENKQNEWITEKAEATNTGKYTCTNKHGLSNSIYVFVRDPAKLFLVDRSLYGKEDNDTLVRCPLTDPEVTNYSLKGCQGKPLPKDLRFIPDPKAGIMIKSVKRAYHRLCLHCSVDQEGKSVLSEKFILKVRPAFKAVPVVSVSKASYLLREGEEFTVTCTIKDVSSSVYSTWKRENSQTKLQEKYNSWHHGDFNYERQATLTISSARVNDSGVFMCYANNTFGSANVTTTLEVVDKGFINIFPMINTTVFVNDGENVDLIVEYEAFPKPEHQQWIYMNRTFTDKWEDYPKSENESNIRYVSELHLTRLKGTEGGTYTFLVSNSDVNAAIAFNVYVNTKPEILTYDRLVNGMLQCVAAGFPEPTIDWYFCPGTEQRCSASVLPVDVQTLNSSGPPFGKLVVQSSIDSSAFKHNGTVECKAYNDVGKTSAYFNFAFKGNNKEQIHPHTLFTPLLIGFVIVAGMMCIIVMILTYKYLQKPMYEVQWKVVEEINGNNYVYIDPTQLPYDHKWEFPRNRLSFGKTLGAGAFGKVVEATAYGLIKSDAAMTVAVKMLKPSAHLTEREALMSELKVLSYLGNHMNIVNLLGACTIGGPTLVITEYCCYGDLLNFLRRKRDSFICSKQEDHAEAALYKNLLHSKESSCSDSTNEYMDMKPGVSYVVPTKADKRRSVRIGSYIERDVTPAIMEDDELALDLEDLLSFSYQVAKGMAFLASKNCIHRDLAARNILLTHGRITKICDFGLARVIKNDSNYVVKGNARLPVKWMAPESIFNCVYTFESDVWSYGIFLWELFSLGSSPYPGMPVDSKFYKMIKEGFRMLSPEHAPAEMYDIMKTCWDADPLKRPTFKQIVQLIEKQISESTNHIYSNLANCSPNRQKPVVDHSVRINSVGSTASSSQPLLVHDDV

CNC(=O)c1cnc(S(C)(=O)=O)nc1N1CCCC(n2nc(-c3ccc(Oc4ccccc4)cc3)c3c(N)ncnc32)C1 (stereo not shown) [Compound 8d, 4-(3-(4-Amino-3-(4-phenoxyphenyl)-1H-pyrazolo[3,4-d]pyrimidin-1-yl)piperidin-1-yl)-N-methyl-2-(methylsulfonyl)pyrimidine-5-carboxamide]
Expr Log Ratio (TMD8 cells; MESP1): -0.242 | Expr Log Ratio (TMD8 cells; MESP2): -0.023 | Expr Log Ratio (TMD8 cells; MFN2): -0.162 | Expr Log Ratio (TMD8 cells; MGAT3): -0.275 | Expr Log Ratio (TMD8 cells; MGAT5): 0.29 | Expr Log Ratio (TMD8 cells; MPZ): -0.137 | Expr Log Ratio (TMD8 cells; MTA3): -0.001 | Expr Log Ratio (TMD8 cells; NCL): -0.053 | Expr Log Ratio (TMD8 cells; NCOA2): 0.045 | Expr Log Ratio (TMD8 cells; NDRG2): 0.057 | Expr Log Ratio (TMD8 cells; NFIA): 0.254 | Expr Log Ratio (TMD8 cells; NFYB): 0.006 | Expr Log Ratio (TMD8 cells; NORAD): -0.057 | Expr Log Ratio (TMD8 cells; NR1H3): 0.155 | Expr Log Ratio (TMD8 cells; OIP5-AS1): 0.071 | Expr Log Ratio (TMD8 cells; PADI2): 0.089 | Expr Log Ratio (TMD8 cells; PCGF2): 0.108 | Expr Log Ratio (TMD8 cells; PDCD4): 0.188 | Expr Log Ratio (TMD8 cells; PIAS3): 0.008 | Expr Log Ratio (TMD8 cells; POR): -0.13 | Expr Log Ratio (TMD8 cells; PPIA): 0.046 | Expr Log Ratio (TMD8 cells; PTAFR): 0.465 | Expr Log Ratio (TMD8 cells; PTP4A3): -0.295 | Expr Log Ratio (TMD8 cells; PTPN2): 0.048 | Expr Log Ratio (TMD8 cells; RALA): -0.18 | Expr Log Ratio (TMD8 cells; REL): -0.144 | Expr Log Ratio (TMD8 cells; RELA): -0.006 | Expr Log Ratio (TMD8 cells; RNASEL): 0.378 | Expr Log Ratio (TMD8 cells; RPA1): 0.039 | Expr Log Ratio (TMD8 cells; RPS6KA5): -0.015 | Expr Log Ratio (TMD8 cells; SCX): 0.154 | Expr Log Ratio (TMD8 cells; SDCBP): 0.02 | Expr Log Ratio (TMD8 cells; SDHB): 0.024 | Expr Log Ratio (TMD8 cells; SP3): -0.093 | Expr Log Ratio (TMD8 cells; SP100): 0.189 | Expr Log Ratio (TMD8 cells; SPINT1): -0.109 | Expr Log Ratio (TMD8 cells; ST6GAL1): -0.01 | Expr Log Ratio (TMD8 cells; STS): 0.181 | Expr Log Ratio (TMD8 cells; TGFBR3): 0.172 | Expr Log Ratio (TMD8 cells; TGS1): 0.171 | expression of AHR target gene CYP1A1 (TMD8 cells; TMD8, 1 μM, 8 h): significantly downregulated | number of genes unchanged vs DMSO (TMD8 cells; TMD8, 1 μM, 8 h): 14389 genes | number of genes unchanged vs ibrutinib (TMD8 cells; TMD8, 1 μM, 8 h): 14881 genes | number of genes reduced vs DMSO (TMD8 cells; TMD8, 1 μM, 8 h, FDR < 0.01, log2FC < -0.5): 274 genes | number of genes increased vs DMSO (TMD8 cells; TMD8, 1 μM, 8 h, FDR < 0.01, log2FC > 0.5): 384 genes | number of genes increased vs ibrutinib (TMD8 cells; TMD8, 1 μM, 8 h, p-value <0.01): 105 genes | number of genes reduced vs ibrutinib (TMD8 cells; TMD8, 1 μM, 8 h, p-value <0.01): 61 genes | Expr Log Ratio (TMD8 cells; TNF): -0.16 | Expr Log Ratio (TMD8 cells; TNFRSF11A): 0.052 | Expr Log Ratio (TMD8 cells; TP53): -0.035 | Expr Log Ratio (TMD8 cells; YWHAZ): 0.016 | %Control difference from compound Ib at 1 µM (EPHB2; @1000nM): -1% | remaining binding at 1 µM (EPHB2; @1000nM, read-out: %Control): 99% | remaining binding at 1 µM (EPHB2; read-out: %Control @1000nM): 99% | difference in % of control versus compound Ib at 1 µM (FYN; @1000nM): 5.4% | remaining binding at 1 µM (FYN; @1000nM, read-out: %Control): 15% | remaining binding at 1 µM (FYN; read-out: %Control @1000nM): 15% | difference in %Control relative to compound Ib at 1 µM (BRK; @1000nM): 13.7% | remaining binding at 1 µM (BRK; @1000nM, read-out: %Control): 15% | remaining binding at 1 µM (BRK; read-out: %Control @1000nM): 15% | remaining binding at 1 µM (KIT(D816V); @1000nM, read-out: %Control): 84% | remaining binding at 1 µM (KIT(D816V); read-out: %Control @1000nM): 84% | difference in %Control versus compound Ib at 1 µM ([1]; @1000nM): 28% | remaining binding at 1 µM ([1]; @1000nM, read-out: %Control): 42% | remaining binding at 1 µM ([1]; read-out: %Control @1000nM): 42% | remaining binding at 1 µM (TIE2; @1000nM, read-out: %Control): 74% | remaining binding at 1 µM (TIE2; read-out: %Control @1000nM): 74% | difference in %Control versus compound Ib at 1 µM (ALK; @1000nM): -11% | remaining binding at 1 µM (ALK; @1000nM, read-out: %Control): 83% | remaining binding at 1 µM (ALK; read-out: %Control @1000nM): 83%
